Earlier results in patent publication US20050250838A1, “Formulation for sustained delivery” (priority 2004, published 2005).
Where a name gives a salt, the structure may show the parent alone. One block for each molecule: values may come before it.

Legend:
[1] = at 6 weeks

solubility (at room temperature (U.S. Pat. No. 6,660,298)): up to 75 mg/ml
Structure (SMILES): Fc1ccc([C@@H]2CCNC[C@H]2COc2ccc3c(c2)OCO3)cc1 [amorphous paroxetine hydrochloride, paroxetine hydrochloride]

solubility in water (water): 6000 to 12000 µg/mL
Structure (SMILES): Fc1ccc([C@@H]2CCNC[C@H]2COc2ccc3c(c2)OCO3)cc1 [paroxetine hydrochloride hemihydrate]

Structure (SMILES): CNCCC(Oc1ccc(C(F)(F)F)cc1)c1ccccc1 (stereo not drawn) [fluoxetine]
response [1]: about 50%
